Measured values as given in US20240228469A1, “PCSK9 INHIBITORS AND METHODS OF USE THEREOF” (AstraZeneca AB, priority 2022, published 2024).

Key:
[1] = target: T1, potassium ion channel hERG (Homo sapiens, UniProt Q12809); experiment: Assay 5 hERG assay (patch clamp, CHO cells over-expressing hERG); assay type: cell-based; details: SyncroPatch 384PE, room temperature, geometric mean, read-out: Assay 5 (hERG Hu CHO if EPh CR-Syncro) GMean IC50
T1 construct: expressed in transfected cells; host or cells: Chinese hamster ovary K1 (CHO)
Outline: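 hERG currents recorded by automated patch clamp at room temperature in CHO-K1 cells, 6-point cumulative concentrations. SyncroPatch runs used KF-based internal (pH 7.2) and NMDG-containing external solution (pH 7.4), 0.33% DMSO; QPatchII runs used 2% or 0.4% DMSO. Only wells meeting seal-resistance and current-size criteria kept.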

[2] = target: GSK3β (Glycogen synthase kinase-3 beta) (Homo sapiens, UniProt P49841); experiment: Assay 6 GSK3β assay (ThermoFisher Z-Lyte FRET); assay type: biochemical; details: ATP Conc: 10 μM, geometric mean; read-out: Assay 6 (GSK3β FRET-Z-Lyte Cr) GMean IC50
Outline: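 Z-Lyte FRET: 0.22-0.92 ng kinase with 2 μM Ser/Thr 09 peptide in HEPES pH 7.5, MgCl2, EGTA, 60 min at room temperature, then 60 min development. Compounds in 1% DMSO, 10-point 3-fold series from 10 μM; sigmoidal dose-response fit.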

PCSK9 [3] = target: T2, PCSK9 (Homo sapiens, UniProt Q8NBP7); experiment: Assay 2 Biophysical human PCSK9 assay (SPR, Biacore); assay type: binding; set-up: biotinylated human PCSK9 (31-692)-Avi-His6; His6 (C); details: single-cycle kinetics, 30° C., geometric mean, read-out: Assay 2 (PCSK9 BIAcore DBA Cr) GMean Kd
Experimental: The SPR binding experiments were performed on a Biacore S200 optical biosensor unit at 30° C. A Series S Sensor Chip SA that is designed to bind biotinylated molecules for interaction analysis in Biacore systems was equilibrated at room temperature prior to use. The running buffer for protein tethering and subsequent ligand binding experiments was 10 mM HEPES pH 7.4, 150 mM NaCl, 0.05% (v/v) Tween 20 pH 7.4.
For the surface tethering of PCSK9, biotinylated human PCSK9 (31-692)-Avi-His6 at a concentration of 0.5 mg/mL was used. Prior to the surface tethering, the surface was exposed to a solution of 50 mM NaOH, 500 mM NaCl via 3 consecutive injections of this solution with a contact time of 60 s and a flowrate of 10 μL min^−1 to remove non-conjugated streptavidin. The PCSK9 protein was diluted to a concentration of 20 μg/mL using running buffer and injected with a contact time of 180-300 s and a flowrate of 10 μL min^−1 over a single flow channel (typically flow channel 2 or flow channel 4) with the aim to achieve protein capture levels of >5000 response units (RU). Remaining biotin binding sites were blocked via 2 consecutive injections of a 10 μM D-biotin solution in running buffer with a contact time of 60 s and a flowrate of 10 μL min^−1 over all flow-channels. Flow-channels 1 and 3 typically served as a reference surface throughout the subsequent binding experiments.
The binding experiments were all performed at a flow rate of 30 PL min^−1 and by employing the method of single-cycle kinetics. This approach involves the sequential injection of a compound concentration series without regeneration steps. A contact time between 90-150 s was selected, which was followed by a 40 min dissociation phase to allow for a proper estimation of the dissociation rate constant. Test compounds were delivered in DMSO at a concentration of 10 mM and a digital dispenser HP D300 was used to set up the compound concentration series using 6 concentrations. The tested concentrations have been 30, 100, 300, 1000, 3000 and 10000 nM. Prior to injecting any compound, the surfaces were equilibrated by injecting running buffer over them in three separate pulses. The data collection rate was set to 10 Hz.
The raw sensorgrams of the compound injections were first subjected to reference subtraction (subtracting the signal from flow channel 1 and/or 3 from the signal from channels 2 and/or 4 respectively) and then blank subtraction (subtracting the signal from injecting DMSO controls from the reference subtracted data). The resulting double-referenced sensorgrams were then fitted using a 1:1 binding interaction model using the manufactures software package to extract kinetic- and affinity data. Active compounds have been defined by creating a detectable binding signal at the highest compound concentration ([…]) of 3 RUs. Kinetic- and affinity data on active compounds are only provided for those compounds where the binding signal at the highest compound concentration ([…]) is 50% of the theoretical maximum binding signal for a 1:1 binding interaction (Rmax, typically between 15-20 RUs) in order to enable a proper fitting of the data.
Target sequence in this assay (Q8NBP7 31-692): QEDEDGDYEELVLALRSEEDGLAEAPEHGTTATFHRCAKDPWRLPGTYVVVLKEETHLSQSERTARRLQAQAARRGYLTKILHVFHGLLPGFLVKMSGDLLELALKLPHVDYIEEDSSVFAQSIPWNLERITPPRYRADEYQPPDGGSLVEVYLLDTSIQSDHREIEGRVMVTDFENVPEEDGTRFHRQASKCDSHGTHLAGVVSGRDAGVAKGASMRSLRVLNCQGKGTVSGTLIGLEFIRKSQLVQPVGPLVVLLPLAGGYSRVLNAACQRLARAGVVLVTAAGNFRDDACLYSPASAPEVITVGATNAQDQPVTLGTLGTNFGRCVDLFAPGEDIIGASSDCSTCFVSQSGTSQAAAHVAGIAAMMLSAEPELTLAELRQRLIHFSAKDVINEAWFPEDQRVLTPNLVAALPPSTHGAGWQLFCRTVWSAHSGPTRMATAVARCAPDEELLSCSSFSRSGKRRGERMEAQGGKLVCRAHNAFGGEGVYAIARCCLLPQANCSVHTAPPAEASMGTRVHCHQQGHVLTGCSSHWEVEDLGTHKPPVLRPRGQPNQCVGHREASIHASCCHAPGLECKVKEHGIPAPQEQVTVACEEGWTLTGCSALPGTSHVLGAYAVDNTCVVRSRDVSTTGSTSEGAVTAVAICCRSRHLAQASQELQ

PCSK9 [4] = target: T3, PCSK9 (Homo sapiens, UniProt Q8NBP7, G670E/V474I); experiment: biochemical
PCSK9 [5] = target: T2, PCSK9; set-up: host or cells: patients; details: clinical trials, patients; alirocumab compared to placebo; cited from earlier work
Target sequence in this assay (Q8NBP7 153-692): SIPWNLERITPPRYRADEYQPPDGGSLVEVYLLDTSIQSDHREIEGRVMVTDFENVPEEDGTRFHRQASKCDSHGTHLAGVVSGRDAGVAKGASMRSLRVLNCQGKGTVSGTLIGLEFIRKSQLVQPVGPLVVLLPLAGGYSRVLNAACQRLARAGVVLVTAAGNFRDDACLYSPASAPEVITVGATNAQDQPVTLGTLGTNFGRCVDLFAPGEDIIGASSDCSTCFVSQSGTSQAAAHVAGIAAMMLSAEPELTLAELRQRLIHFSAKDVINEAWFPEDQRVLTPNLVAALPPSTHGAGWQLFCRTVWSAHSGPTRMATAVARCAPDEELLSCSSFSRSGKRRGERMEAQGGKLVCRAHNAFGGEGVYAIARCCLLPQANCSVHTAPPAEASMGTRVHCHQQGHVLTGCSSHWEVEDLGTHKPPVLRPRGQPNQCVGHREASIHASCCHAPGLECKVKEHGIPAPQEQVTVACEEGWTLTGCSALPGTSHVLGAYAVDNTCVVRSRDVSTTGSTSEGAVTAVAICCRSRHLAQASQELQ

PCSK9 [6] = target: T3, PCSK9; experiment: Assay 3 PCSK9 LDL-C uptake assay in HepG2 cells; assay type: cell-based; set-up: TEV site (C); His6 (C); host or cells: added to HepG2 (ATCC #HB-8065); details: 125 nM PCSK9, pHrodo Red-LDL, read-out: Assay 3 LDL uptake potency
Description: This assay measures for PCSK9 antagonist activity based on a test compound's capacity to restore LDL-C-uptake in HepG2 cells. The assay is based on exogenous PCSK9 and LDL-C complexed with a pH-sensitive dye. Outside the cells, at neutral pH, the pHrodo Red-LDL is dimly fluorescent but upon LDLR mediated endocytosis it fluoresces brightly. PCSK9 traffics the LDLR to intracellular degradation and reduces uptake of LDL-C. Inhibition of PCSK9 reduces LDLR degradation and the increased LDL-C uptake is quantified by fluorescence microscopy.
• Cell medium: MEM supplemented with 10% FBS, 1×NEAA and Sodium Pyruvate • Assay medium: OptiMem supplemented with penicillin/streptomycin • Cells: HepG2 (ATCC #HB-8065)
• 1. Cryopreserved HepG2 cells were thawed in assay medium and centrifuged for 5 min at 250 g. Supernatant was discarded and the cell pellet resuspended in cell medium and counted with a Nucleocounter. Cells were again centrifuged 5 min at 250 g and the pellet was resuspended to 500000 cells/mL in assay medium. • 2. 20 μL of above cell mix was dispensed into black μclear TC treated 384 well plates with Multidrop Combi and left at room temperature for 20 minutes. • 3. Plates were incubated at 37° C., 5% CO2 for 24 h
• 1. Test compounds were prepared in concentration response in DMSO with a half-log dilution factor in DMSO in Echo 384 LDV plates starting at 10 mM. • 2. 30 nL of above test compounds were dispensed with Echo 655 to cells for a top concentration of 10 μM • 3. 10 μL PCSK9 in assay medium was dispensed to cells with Multidrop Combi for 125 nM final concentration in the wells. • 4. Plates were incubated at 37° C., 5% CO2 for 24 h
• 1. 10 μL pHrodo Red-LDL in assay medium was dispensed to cells with Multidrop Combi for […] • 2. Plates were incubated at 37° C., 5% CO2 and imaged with the Incucyte S3 after 4 h and 24 h
Image data was processed using Incucyte 2021, a software to identify cells and red fluorescent intensity. Screener was used to further process data. Data was normalized as % effect of the signal between median values of the on-plate controls of DMSO and 100 nM Evolocumab according to the formula % effect=−100*(x−DMSO)/(Evolocumab−DMSO) where x equals the measured signal. Concentration response data of the normalized values were fitted using a four-parameter logistic fit.

T1 sequence (Q12809 whole entry): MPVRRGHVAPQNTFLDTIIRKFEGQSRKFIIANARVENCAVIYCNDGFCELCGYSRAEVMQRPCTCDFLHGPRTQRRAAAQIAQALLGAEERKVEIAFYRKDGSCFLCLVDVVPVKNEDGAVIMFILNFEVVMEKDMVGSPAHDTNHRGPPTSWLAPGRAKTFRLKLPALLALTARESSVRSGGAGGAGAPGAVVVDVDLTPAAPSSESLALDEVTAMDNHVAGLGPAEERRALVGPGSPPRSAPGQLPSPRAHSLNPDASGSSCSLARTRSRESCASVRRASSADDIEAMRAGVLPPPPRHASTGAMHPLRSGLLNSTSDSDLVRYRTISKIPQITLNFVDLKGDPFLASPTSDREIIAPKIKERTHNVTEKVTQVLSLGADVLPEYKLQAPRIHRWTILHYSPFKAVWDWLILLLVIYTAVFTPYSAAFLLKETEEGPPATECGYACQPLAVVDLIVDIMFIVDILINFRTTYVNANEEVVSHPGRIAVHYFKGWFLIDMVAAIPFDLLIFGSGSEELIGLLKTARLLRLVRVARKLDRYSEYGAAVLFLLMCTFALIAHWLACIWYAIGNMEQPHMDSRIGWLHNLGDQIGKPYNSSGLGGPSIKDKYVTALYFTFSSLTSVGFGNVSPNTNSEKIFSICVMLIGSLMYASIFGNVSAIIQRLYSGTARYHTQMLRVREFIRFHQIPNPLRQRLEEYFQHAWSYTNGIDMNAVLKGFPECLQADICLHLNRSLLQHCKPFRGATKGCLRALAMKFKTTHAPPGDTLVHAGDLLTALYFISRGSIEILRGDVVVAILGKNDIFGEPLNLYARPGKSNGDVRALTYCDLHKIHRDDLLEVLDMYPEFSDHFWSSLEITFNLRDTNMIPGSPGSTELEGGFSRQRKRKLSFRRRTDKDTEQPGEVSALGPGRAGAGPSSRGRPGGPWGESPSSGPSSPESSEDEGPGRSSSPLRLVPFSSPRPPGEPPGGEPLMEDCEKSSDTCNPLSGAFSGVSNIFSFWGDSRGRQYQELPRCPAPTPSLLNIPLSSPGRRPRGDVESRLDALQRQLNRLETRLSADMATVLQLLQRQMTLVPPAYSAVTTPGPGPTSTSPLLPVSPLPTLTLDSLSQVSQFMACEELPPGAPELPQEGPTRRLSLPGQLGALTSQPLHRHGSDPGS
GSK3β (Glycogen synthase kinase-3 beta), sequence (P49841 whole entry): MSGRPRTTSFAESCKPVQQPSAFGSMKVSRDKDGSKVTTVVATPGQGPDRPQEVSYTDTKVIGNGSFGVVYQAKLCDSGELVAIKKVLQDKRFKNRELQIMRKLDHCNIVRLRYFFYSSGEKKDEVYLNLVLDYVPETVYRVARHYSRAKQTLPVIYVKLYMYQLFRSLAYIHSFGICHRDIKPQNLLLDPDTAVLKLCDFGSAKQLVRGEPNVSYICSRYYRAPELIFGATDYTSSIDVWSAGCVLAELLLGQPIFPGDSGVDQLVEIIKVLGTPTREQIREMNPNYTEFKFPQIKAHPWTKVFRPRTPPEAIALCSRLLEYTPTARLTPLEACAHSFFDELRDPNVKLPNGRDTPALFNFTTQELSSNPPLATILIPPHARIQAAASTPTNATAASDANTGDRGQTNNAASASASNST
T3 sequence (Q8NBP7 with tags, fused parts or gaps V474I/G670E): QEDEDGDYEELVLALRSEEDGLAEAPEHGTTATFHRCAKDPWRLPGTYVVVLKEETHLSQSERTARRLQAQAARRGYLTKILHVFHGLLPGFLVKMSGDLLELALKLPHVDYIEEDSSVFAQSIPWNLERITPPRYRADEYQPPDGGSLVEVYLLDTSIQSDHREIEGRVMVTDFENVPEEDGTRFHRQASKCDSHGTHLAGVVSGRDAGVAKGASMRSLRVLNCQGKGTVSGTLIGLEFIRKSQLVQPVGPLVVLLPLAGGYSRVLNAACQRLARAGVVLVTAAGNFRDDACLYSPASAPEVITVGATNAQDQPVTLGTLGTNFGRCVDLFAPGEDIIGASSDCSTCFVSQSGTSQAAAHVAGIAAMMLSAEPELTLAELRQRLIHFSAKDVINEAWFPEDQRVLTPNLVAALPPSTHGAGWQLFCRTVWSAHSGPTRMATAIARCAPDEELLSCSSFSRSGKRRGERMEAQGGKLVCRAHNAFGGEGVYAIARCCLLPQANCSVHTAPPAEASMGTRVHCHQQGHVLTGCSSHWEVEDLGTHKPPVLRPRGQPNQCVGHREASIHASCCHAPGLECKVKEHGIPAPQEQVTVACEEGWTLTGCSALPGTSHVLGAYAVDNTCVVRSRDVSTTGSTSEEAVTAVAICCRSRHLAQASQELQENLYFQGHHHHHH

Compound | IC50 [1] | IC50 [2] | Kd (PCSK9 [3]) | IC50 (PCSK9 [4]) | decrease in LDL levels (PCSK9 [5]) | EC50 (PCSK9 [6])
Cc1cnc(N[C@H]2CC[C@H](Nc3ccc(-n4ncc5ccccc54)cn3)C2)nn1 [Example 311, (1S,3S)—N′-(5-(1H-Indazol-1-yl)pyridin-2-yl)-N^3-(6-methyl-1,2,4-triazin-3-yl)cyclopentane-1,3-diamine] | 7600 nM | > 10000 nM | 6.9 nM | 5.5 nM |  | 
O=C(NCCO)c1cnc(N[C@H]2CC[C@H](Nc3ccc(-n4ccccc4=O)cn3)C2)nn1 [Example 72, N-(2-Hydroxyethyl)-3-(((1S,3S)-3-((2-oxo-2H-[1,3′-bipyridin]-6′-yl)amino)cyclopentyl)amino)-1,2,4-triazine-6-carboxamide] | > 40000 nM | > 10000 nM | 170 nM | 205 nM |  | 
CCNC(=O)c1cnc(N[C@H]2CC[C@H](Nc3ccc(-n4ccccc4=O)cn3)C2)nn1 [Example 73, N-Ethyl-3-(((1S,3S)-3-((2-oxo-2H-[1,3′-bipyridin]-6′-yl)amino)cyclopentyl)amino)-1,2,4-triazine-6-carboxamide] | > 40000 nM | > 10000 nM | 48 nM | 75 nM |  | 
Cc1cnc(N[C@H]2CC[C@H](Nc3ccc(-n4ncc5cccnc54)cn3)C2)nn1 [Example 310, (1S,3S)—N′-(5-(1H-Pyrazolo[3,4-b]pyridin-1-yl)pyridin-2-yl)-N^3-(6-methyl-1,2,4-triazin-3-yl)cyclopentane-1,3-diamine] | 35000 nM | > 10000 nM | 19 nM | 22 nM |  | 
Cc1nnc(N[C@H]2CC[C@H](Nc3ccc(-n4ccccc4=O)cn3)C2)nc1C [Example 127, 6′-(((1S,3S)-3-((5,6-Dimethyl-1,2,4-triazin-3-yl)amino)cyclopentyl)amino)-2H-[1,3′-bipyridin]-2-one] | > 40000 nM | > 10000 nM | 248 nM | 193 nM |  | 
CN(C)C(=O)c1cnc(N[C@H]2CC[C@H](Nc3ccc(-n4ccccc4=O)cn3)C2)nn1 [Example 76, N,N-Dimethyl-3-(((1S,3S)-3-((2-oxo-2H-[1,3′-bipyridin]-6′-yl)amino)cyclopentyl)amino)-1,2,4-triazine-6-carboxamide] | > 40000 nM | > 10000 nM | 125 nM | 485 nM |  | 
alirocumab |  |  |  |  | about 50% | 
Cc1cnnc(N[C@H]2CC[C@H](Nc3ccc(-n4ccccc4=O)cn3)C2)n1 [Example 126, 6′-(((1S,3S)-3-((5-Methyl-1,2,4-triazin-3-yl)amino)cyclopentyl)amino)-2H-[1,3′-bipyridin]-2-one] | > 40000 nM | > 10000 nM | 954 nM | 744 nM |  | 
NC(=O)c1cnc(N[C@H]2CC[C@H](Nc3ccc(-n4ccccc4=O)cn3)C2)nn1 [Example 74, 3-(((1S,3S)-3-((2-Oxo-2H-[1,3′-bipyridin]-6′-yl)amino)cyclopentyl)amino)-1,2,4-triazine-6-carboxamide] | > 40000 nM | 8300 nM | 80 nM | 85 nM |  | 
Cc1cnc(N[C@H]2CC[C@H](Nc3ccc(-n4cc(-c5cnn(C)c5)ccc4=O)cn3)C2)nn1 [Example 201, 6′-(((1S,3S)-3-((6-Methyl-1,2,4-triazin-3-yl)amino)cyclopentyl)amino)-5-(1-methyl-1H-pyrazol-4-yl)-2H-[1,3′-bipyridin]-2-one] | > 40100 nM | 2380 nM |  | 8.6 nM |  | 200 nM
O=C(NCC(F)F)c1cnc(N[C@H]2CC[C@H](Nc3ccc(-n4ccccc4=O)cn3)C2)nn1 [Example 71, N-(2,2-Difluoroethyl)-3-(((1S,3S)-3-((2-oxo-2H-[1,3′-bipyridin]-6′-yl)amino)cyclopentyl)amino)-1,2,4-triazine-6-carboxamide] | > 40000 nM | > 10000 nM | 63 nM | 46 nM |  | 
Cc1cnc(N[C@H]2CC[C@H](Nc3ccc(-n4cccc(C)c4=O)cn3)C2)nn1 (racemic) [Example 173, rel-3-Methyl-6′-(((1 R,3R)-3-((6-methyl-1,2,4-triazin-3-yl)amino)cyclopentyl)amino)-2H-[1,3′-bipyridin]-2-one] | > 40100 nM | 1950 nM |  | 4.2 nM |  | 100 nM
COc1ccn(-c2ccc(N[C@H]3CC[C@H](Nc4ncc(C)nn4)C3)nc2)c(=O)c1 [Example 180, 4-Methoxy-6′-(((1S,3S)-3-((6-methyl-1,2,4-triazin-3-yl)amino)cyclopentyl)amino)-2H-[1,3′-bipyridin]-2-one] | > 40100 nM | > 10000 nM |  | 6 nM |  | 300 nM
